This is an account of results in ChEMBL document CHEMBL3046799, “Synthesis and in vivo anticancer and antiangiogenic effects of novel thioxothiazolidin-4-one derivatives against transplantable mouse tumor” (2010).

The source made the active and inactive calls. The calls are words filed in the database; no cut-off is given here.

The subject of assay [1] is EAT. Briefly: Antiangiogenic activity in Mus musculus (mouse) EAT xenografted in Mus musculus (mouse) assessed as reduction of vascularization at 100 mg/kg, ip administered day 7 to 11 post tumor implantation measured on day 12 relative to control. In kind it is functional, organism-based. Also noted: dose 100 mg/kg.
Assay [2] has as its system EAT. Briefly: (§1) Antitumor activity against Mus musculus (mouse) EAT xenografted in Mus musculus (mouse) assessed as decrease in tumor volume at 100 mg/kg, ip administered day 7 to 11 post tumor implantation measured on day 12 (reference value: 7.6 +/- 0.9 ml). Format: functional.
Assay [3] is described as follows: Antitumor activity against Mus musculus (mouse) EAT xenografted in Mus musculus (mouse) assessed as increase in life span at 100 mg/kg, ip administered day 7 to 11 post tumor implantation measured up to 28 days relative to control. Format: functional. The note with it: route intraperitoneal.
For assay [4], the system named is EAT. Briefly: Antitumor activity against Mus musculus (mouse) EAT xenografted in Mus musculus (mouse) assessed as decrease in body weight at 100 mg/kg, ip administered day 7 to 11 post tumor implantation measured on day 12 relative to control.
Assay [5] in a line: as §1. The note with it: route intraperitoneal. In kind it is functional.

Consider `O=C(CN1C(=O)/C(=C/c2ccc(-c3ccc(Cl)cc3)o2)SC1=S)Nc1ccon1`, for which the outcome with EAT [1], in the assay with EAT [2] and in the assay with EAT [4] was Active. Moreover, in assay [3], the Activity is listed as 18.25%.
On to `COC(=O)C(Cc1ccc(O)cc1)NC(=O)CN1C(=O)/C(=C/c2ccc(-c3ccc(Cl)cc3)o2)SC1=S` (configuration not stated), for which the outcome with EAT [1], in the assay with EAT [2] and with EAT [4] was Active. For the same compound, in assay [3], the Activity is given as 25%.
For `Cc1nc(-c2ccc(NC(=O)CN3C(=O)/C(=C/c4ccc(-c5ccc(Cl)cc5)o4)SC3=S)cc2)no1`, the outcome with EAT [1] and with EAT [4] was Active. The results for the Activity in assay [5] and in assay [3] were 5.2 mL and 43.75%, respectively.
Take `COc1ccc(Cn2nc(C3CC3)cc2NC(=O)CN2C(=O)/C(=C/c3ccc(-c4ccc(Cl)cc4)o3)SC2=S)cc1`: the result in the assay with EAT [1] and with EAT [4] was Active. The Activity was 4.8 mL in assay [5] and 56.25% in assay [3].
`COc1ccc(CCNC(=O)CN2C(=O)/C(=C/c3ccc(-c4ccc(Cl)cc4)o3)SC2=S)cc1`: the outcome in the assay on EAT [1] and in the assay with EAT [4] was Active. In addition, the Activity worked out at 5.7 mL in assay [5] and 37.5% in assay [3].
As to `O=C(CN1C(=O)/C(=C/c2ccc(-c3ccc(Cl)cc3)o2)SC1=S)N1CCN(c2ccccc2F)CC1`, the result in the assay with EAT [1], in the assay on EAT [2] and in the assay on EAT [4] was Active. Also, in assay [3], the Activity is on record as 31.25%.
With `CCCCNC(=O)CN1C(=O)/C(=C/c2ccc(-c3ccc(Cl)cc3)o2)SC1=S`, the result in the assay with EAT [1] and in the assay with EAT [4] was Active. The Activity in assay [3] amounted to 12.5%.
